Results reported in US9963467B2, “Boronic acid derivatives and therapeutic uses thereof” (Rempex Pharmaceuticals, Inc., priority 2014, dated 2018).
pKi: −log10 of the molar value.

Legend:
KP1009 (CTX-M-15) = experiment: Tigemonam potentiation (MPC@4), KP1009; assay type: cell-based; details: BLI with tigemonam at 4 μg/mL
ec302 (TEM-10) [1] = experiment: Tigemonam potentiation (MPC@4), ec302; assay type: cell-based
OXA-48 = OXA-48 (Klebsiella pneumoniae, UniProt Q6XEC0); experiment: Ki, nitrocefin cleavage by purified enzyme, OXA-48; assay type: biochemical; details: nitrocefin reporter substrate; read-out: Ki (OXA-48, NCF)
Procedure: (§1) Purified enzymes were mixed with various concentrations of inhibitors in reaction buffer and incubated for 10 min at room temperature. Nitrocefin was added and substrate cleavage profiles were recorded at 490 nm every 10 sec for 10 min.

KP1005 (CTX-M-14) = experiment: Tigemonam potentiation (MPC@4), KP1005; assay type: cell-based; details: BLI with tigemonam at 4 μg/mL
EC1010 (CMY-6) [2] = experiment: Tigemonam potentiation (MPC@4), EC1010; assay type: cell-based; details: BLI with tigemonam at 4 μg/mL
KP1010 (SHV-12) = experiment: Tigemonam potentiation (MPC@4), KP1010; assay type: cell-based
Pa AmpC = Pa AmpC (Pseudomonas aeruginosa, UniProt P24735); experiment: Ki, nitrocefin cleavage by purified enzyme, Pa AmpC; assay type: biochemical; details: nitrocefin reporter substrate; read-out: Ki (Pa AmpC, NCF)
Procedure: Ki values of inhibition of purified class A, C and D enzymes were determined spectrophotometrically using nitrocefin as reporter substrate. Purified enzymes were mixed with various concentrations of inhibitors in reaction buffer and incubated for 10 min at room temperature. Nitrocefin was added and substrate cleavage profiles were recorded at 490 nm every 10 sec for 10 min. These experiments confirmed that the described compounds are inhibitors with a broad-spectrum of activity towards various β-lactamases.

SHV-12 = SHV-12 (Klebsiella pneumoniae, UniProt P0AD64, E235K/G234S/L31Q); experiment: Ki, nitrocefin cleavage by purified enzyme, SHV-12; assay type: biochemical; details: nitrocefin reporter substrate; read-out: Ki (SHV-12, NCF)
Procedure: as §1

KPC-2 = KPC-2 (Klebsiella pneumoniae, UniProt Q9F663); experiment: Ki, nitrocefin cleavage by purified enzyme, KPC-2; assay type: biochemical; details: nitrocefin reporter substrate; read-out: Ki (KPC-2, NCF)
Procedure: as §1

ECL1002 [3] = experiment: Aztreonam potentiation (MPC@4), ECL1002; assay type: cell-based; details: BLI with aztreonam at 4 μg/mL
ec302 (TEM-10) [4] = experiment: Aztreonam potentiation (MPC@4), ec302; assay type: cell-based; details: BLI with aztreonam at 4 μg/mL
ECL1002 [5] = experiment: Tigemonam potentiation (MPC@4), ECL1002; assay type: cell-based; details: BLI with tigemonam at 4 μg/mL
[6] = Monomer content of pH adjusted aqueous solutions (LC-UV); assay type: physicochemical; details: pH adjusted to 7.6 to 8, LC-UV; for % Monomer in 1 mg/mL salt solution: 1 mg/mL aqueous salt solution
Procedure: Boronic acid containing compounds are known to undergo oligomerization. The presence of oligomers can greatly complicate drug development, as they represent new chemical species whose content must be controlled and qualified by testing in toxoicology studies. The monomer content of compounds was evaluated by adjusting aqueous solutions to physiological pH at various concentrations. The monomer content of pH adjusted solutions was measured using LC-UV. Test compounds were weighed out into a 1.5 mL Eppendorf tube. A solution of water was prepared in 1.00 mg/mL, 10.0 mg/mL or 100 mg/mL concentrations of the compound based on active fraction. A volume 20 uL was subtracted to allow room for addition of acid or base to adjust pH. The solution pH was measured. The pH was then adjusted through addition of acid or base as necessary until the reading was in the 7.6 to 8 range. A final pH measurement was made after ensuring all the compound was in solution. The solution was injected onto LC-UV in 0.1 uL to 5 uL volume within less than half an hour after the time the sample was prepared. Elution was done using 0.1% TFA in water for mobile phase A and 0.085% TFA in methanol for mobile phase B on an Excel ACE 5 Super C18 2.1×100 mm column at 0.6 ml/min flow rate with 9 min gradient, 3.9 minute hold at 90% B and 18 minute run time. The absorption was measured at 220, 254 and 300 nm with a 4 nm bandwidth.

ec308 (SHV-5) = experiment: Tigemonam potentiation (MPC@4), ec308; assay type: cell-based
KP1086 (OXA-48) = experiment: Biapenem potentiation (MPC@1), KP1086; details: BLI with biapenem at 1 μg/mL
P99 = P99 (Enterobacter cloacae, UniProt P05364); experiment: Ki, nitrocefin cleavage by purified enzyme, P99; assay type: biochemical; details: nitrocefin reporter substrate; read-out: Ki (P99, NCF)
Procedure: as §1

KP1004 (KPC-2) [7] = experiment: Biapenem potentiation (MPC@1), KP1004; details: BLI with biapenem at 1 μg/mL
CTX-M-14 = CTX-M-14 (Escherichia coli, UniProt Q9L5C7); experiment: Ki, nitrocefin cleavage by purified enzyme, CTX-M-14; assay type: biochemical; details: nitrocefin reporter substrate; read-out: Ki (CTX-M-14, NCF)
Procedure: as §1

EC1010 (CMY-6) [8] = experiment: organism not typed; assay type: cell-based
KP1004 (KPC-2) [9] = experiment: Aztreonam potentiation (MPC@4), KP1004; assay type: cell-based; details: BLI with aztreonam at 4 μg/mL

Sequence of OXA-48 (Q6XEC0 23-265, looked up, species assumed): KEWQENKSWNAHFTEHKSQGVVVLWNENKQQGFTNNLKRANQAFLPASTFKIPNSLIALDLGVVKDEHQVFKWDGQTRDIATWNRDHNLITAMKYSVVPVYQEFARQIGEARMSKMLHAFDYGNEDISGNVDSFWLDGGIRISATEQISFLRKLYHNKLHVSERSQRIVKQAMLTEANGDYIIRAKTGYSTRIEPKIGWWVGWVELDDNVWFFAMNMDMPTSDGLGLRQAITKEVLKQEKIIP
Sequence of Pa AmpC (P24735 27-397): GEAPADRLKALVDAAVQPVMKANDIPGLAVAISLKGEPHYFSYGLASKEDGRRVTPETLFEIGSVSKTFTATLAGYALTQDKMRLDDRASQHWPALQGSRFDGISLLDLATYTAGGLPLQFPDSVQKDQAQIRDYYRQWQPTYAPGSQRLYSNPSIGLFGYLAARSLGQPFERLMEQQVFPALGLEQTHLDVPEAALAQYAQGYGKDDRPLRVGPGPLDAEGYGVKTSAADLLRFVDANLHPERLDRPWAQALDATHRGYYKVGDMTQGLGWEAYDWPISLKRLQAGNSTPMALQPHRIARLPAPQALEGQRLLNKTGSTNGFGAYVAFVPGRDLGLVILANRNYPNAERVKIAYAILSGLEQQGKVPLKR
Sequence of CTX-M-14 (Q9L5C7 29-291): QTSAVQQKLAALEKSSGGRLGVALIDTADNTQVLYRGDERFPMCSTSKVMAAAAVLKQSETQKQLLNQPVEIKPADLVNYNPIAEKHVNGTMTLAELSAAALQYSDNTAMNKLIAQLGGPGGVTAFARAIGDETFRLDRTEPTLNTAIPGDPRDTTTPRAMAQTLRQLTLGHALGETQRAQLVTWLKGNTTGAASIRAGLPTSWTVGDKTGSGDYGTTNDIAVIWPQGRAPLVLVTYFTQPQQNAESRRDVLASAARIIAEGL
Sequence of SHV-12 (P0AD64 22-286 L31Q/G234S/E235K): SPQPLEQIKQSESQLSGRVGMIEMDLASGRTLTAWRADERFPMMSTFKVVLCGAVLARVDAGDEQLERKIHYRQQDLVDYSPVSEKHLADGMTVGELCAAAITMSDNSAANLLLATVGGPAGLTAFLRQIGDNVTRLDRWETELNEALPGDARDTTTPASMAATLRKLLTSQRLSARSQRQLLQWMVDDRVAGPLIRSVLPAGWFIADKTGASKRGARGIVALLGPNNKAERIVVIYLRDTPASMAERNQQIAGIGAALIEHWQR
Sequence of P99 (P05364 21-381): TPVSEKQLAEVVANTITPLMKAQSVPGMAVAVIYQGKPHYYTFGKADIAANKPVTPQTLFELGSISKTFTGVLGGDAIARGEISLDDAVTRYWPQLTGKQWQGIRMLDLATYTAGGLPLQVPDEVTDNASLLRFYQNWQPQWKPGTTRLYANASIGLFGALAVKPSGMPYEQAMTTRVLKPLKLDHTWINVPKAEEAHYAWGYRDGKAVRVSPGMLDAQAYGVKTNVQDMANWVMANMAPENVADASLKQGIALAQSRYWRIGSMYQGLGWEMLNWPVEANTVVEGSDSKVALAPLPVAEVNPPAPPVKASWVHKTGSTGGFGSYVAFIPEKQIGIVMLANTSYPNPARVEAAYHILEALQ
Sequence of KPC-2 (Q9F663 25-293, looked up, species assumed): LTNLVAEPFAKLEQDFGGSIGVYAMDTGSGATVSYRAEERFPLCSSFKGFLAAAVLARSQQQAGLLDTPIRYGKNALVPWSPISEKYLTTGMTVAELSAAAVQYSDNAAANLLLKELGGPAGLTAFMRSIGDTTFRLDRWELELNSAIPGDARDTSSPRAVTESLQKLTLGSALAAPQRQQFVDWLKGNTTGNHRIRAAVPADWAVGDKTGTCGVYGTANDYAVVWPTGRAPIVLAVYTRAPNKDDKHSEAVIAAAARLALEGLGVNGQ

| Compound | TIG MPC4 CTX-M-15 KP1009 (KP1009 (CTX-M-15)) | TIG MPC4 TEM-10 ec302 (ec302 (TEM-10) [1]) | pKi (OXA-48) | TIG MPC4 CTX-M-14 KP1005 (KP1005 (CTX-M-14)) | TIG MPC4 CMY-6 EC1010 (EC1010 (CMY-6) [2]) | TIG MPC4 SHV-12 KP1010 (KP1010 (SHV-12)) | pKi (Pa AmpC) | pKi (SHV-12) | pKi (KPC-2) | AZT MPC4 ECL1002 (ECL1002 [3]) | AZT MPC4 TEM-10 ec302 (ec302 (TEM-10) [4]) | TIG MPC4 ECL1002 (ECL1002 [5]) | % Monomer in 1 mg/mL salt solution [6] [%] | TIG MPC4 SHV-5 ec308 (ec308 (SHV-5)) | BPM MPC1 OXA-48 KP1086 (KP1086 (OXA-48)) | pKi (P99) | BPM MPC1 KP1004 KPC-2 (KP1004 (KPC-2) [7]) | pKi (CTX-M-14) | AZT MPC4 CMY-6 EC1010 (EC1010 (CMY-6) [8]) | further results |
| --- | --- | --- | --- | --- | --- | --- | --- | --- | --- | --- | --- | --- | --- | --- | --- | --- | --- | --- | --- | --- |
| NC(=O)CC(=O)N[C@H]1Cc2ccc(F)c(C(=O)O)c2OB1O [Compound 5, (R)-3-(3-amino-3-oxopropanamido)-7-fluoro-2-hydroxy-3,4-dihydro-2H-benzo[e][1,2]oxaborinine-8-carboxylic acid] | X (MIC of less than 1 μg/mL) | Z (key: X: MIC of less than 1 ng/mL; Y: MIC of 1 μg/mL to 10 μg/mL; Z: MIC of greater than 10 μg/mL) | > 9.00 | Y (MIC of 1 μg/mL to 10 μg/mL) | X (MIC of less than 1 μg/mL) | X (key: X: MIC of less than 1 μg/mL; Y: MIC of 1 μg/mL to 10 μg/mL; Z: MIC of greater than 10 μg/mL) | < 8.00 | > 9.00 | < 8.00 | Y (MIC of 1 μg/mL to 10 μg/mL) | Y (MIC of 1 μg/mL to 10 μg/mL) | X (MIC of less than 1 μg/mL) | 98.5 | X (key: X: MIC of less than 1 μg/mL; Y: MIC of 1 μg/mL to 10 μg/mL; Z: MIC of greater than 10 μg/mL) | Y (MIC of 1 μg/mL to 10 μg/mL) | < 8.00 | X (MIC of less than 1 μg/mL) | > 9.00 | Y (key: X: MIC of less than 1 ng/mL; Y: MIC of 1 μg/mL to 10 μg/mL; Z: MIC of greater than 10 μg/mL) |  |
| CNC(=O)CC(=O)N[C@H]1Cc2ccc(F)c(C(=O)O)c2OB1O [Compound 7, (R)-7-fluoro-2-hydroxy-3-(3-(methylamino)-3-oxopropanamido)-3,4-dihydro-2H-benzo[e][1,2]oxaborinine-8-carboxylic acid] | X (MIC of less than 1 μg/mL) | Z (key: X: MIC of less than 1 ng/mL; Y: MIC of 1 μg/mL to 10 μg/mL; Z: MIC of greater than 10 μg/mL) | 8.00 to 9.00 | Y (MIC of 1 μg/mL to 10 μg/mL) | X (MIC of less than 1 μg/mL) | X (key: X: MIC of less than 1 μg/mL; Y: MIC of 1 μg/mL to 10 μg/mL; Z: MIC of greater than 10 μg/mL) | < 8.00 | > 9.00 | < 8.00 | Y (MIC of 1 μg/mL to 10 μg/mL) | Y (MIC of 1 μg/mL to 10 μg/mL) | X (MIC of less than 1 μg/mL) | 97.1 | X (key: X: MIC of less than 1 μg/mL; Y: MIC of 1 μg/mL to 10 μg/mL; Z: MIC of greater than 10 μg/mL) | Y (MIC of 1 μg/mL to 10 μg/mL) | < 8.00 | X (MIC of less than 1 μg/mL) | > 9.00 | Y (key: X: MIC of less than 1 ng/mL; Y: MIC of 1 μg/mL to 10 μg/mL; Z: MIC of greater than 10 μg/mL) |  |
| COc1ccc2c(c1C(=O)O)OB(O)[C@@H](NC(=O)CSC)C2 [Compound 12, (R)-2-hydroxy-7-methoxy-3-(2-(methylthio)acetamido)-3,4-dihydro-2H-benzo[e][1,2]oxaborinine-8-carboxylic acid] | X (MIC of less than 1 μg/mL) | Y (key: X: MIC of less than 1 ng/mL; Y: MIC of 1 μg/mL to 10 μg/mL; Z: MIC of greater than 10 μg/mL) | > 9.00 | X (MIC of less than 1 μg/mL) | X (MIC of less than 1 μg/mL) | X (key: X: MIC of less than 1 μg/mL; Y: MIC of 1 μg/mL to 10 μg/mL; Z: MIC of greater than 10 μg/mL) | < 8.00 | > 9.00 | < 8.00 |  | X (MIC of less than 1 ng/mL) | X (MIC of less than 1 μg/mL) | 98.2 | X (key: X: MIC of less than 1 μg/mL; Y: MIC of 1 μg/mL to 10 μg/mL; Z: MIC of greater than 10 μg/mL) | Y (MIC of 1 μg/mL to 10 μg/mL) | < 8.00 | X (MIC of less than 1 μg/mL) | > 9.00 |  | % Monomer in 10 mg/mL salt solution ([6]; 10 mg/mL aqueous salt solution): 95.5%; % Monomer in 100 mg/mL salt solution ([6]; 100 mg/mL aqueous salt solution): 96.5% |
| CSCC(=O)N[C@H]1Cc2ccc(SCC(N)=O)c(C(=O)O)c2OB1O [Compound 22, (R)-7-(2-amino-2-oxoethylthio)-2-hydroxy-3-(2-(methylthio)acetamido)-3,4-dihydro-2H-benzo[e][1,2]oxaborinine-8-carboxylic acid] | X (MIC of less than 1 μg/mL) | Y (key: X: MIC of less than 1 ng/mL; Y: MIC of 1 μg/mL to 10 μg/mL; Z: MIC of greater than 10 μg/mL) |  | X (MIC of less than 1 μg/mL) | X (MIC of less than 1 μg/mL) | X (key: X: MIC of less than 1 μg/mL; Y: MIC of 1 μg/mL to 10 μg/mL; Z: MIC of greater than 10 μg/mL) | < 8.00 | > 9.00 | < 8.00 | Y (MIC of 1 μg/mL to 10 μg/mL) | Y (MIC of 1 μg/mL to 10 μg/mL) | Y (MIC of 1 μg/mL to 10 μg/mL) |  | X (key: X: MIC of less than 1 μg/mL; Y: MIC of 1 μg/mL to 10 μg/mL; Z: MIC of greater than 10 μg/mL) | Z (MIC of greater than 10 μg/mL) | < 8.00 | X (MIC of less than 1 μg/mL) | > 9.00 | Y (key: X: MIC of less than 1 ng/mL; Y: MIC of 1 μg/mL to 10 μg/mL; Z: MIC of greater than 10 μg/mL) | AZT MPC4 KPC-2 KP1004 (KP1004 (KPC-2) [9]): Y (MIC of 1 μg/mL to 10 μg/mL) |
